Key:
PRMT7 = molecular target: T1, PRMT7 (Homo sapiens, UniProt Q9NVM4); set-up: method as in PMID 35482954; details: heatmap of Figure 2; cited from earlier work
T1 construct: PRMT7 (residues 2–692, C-terminus); with an N-terminal His-tag; His (N); purchased Reaction Biology Corporation
T1 sequence (Q9NVM4 2-692): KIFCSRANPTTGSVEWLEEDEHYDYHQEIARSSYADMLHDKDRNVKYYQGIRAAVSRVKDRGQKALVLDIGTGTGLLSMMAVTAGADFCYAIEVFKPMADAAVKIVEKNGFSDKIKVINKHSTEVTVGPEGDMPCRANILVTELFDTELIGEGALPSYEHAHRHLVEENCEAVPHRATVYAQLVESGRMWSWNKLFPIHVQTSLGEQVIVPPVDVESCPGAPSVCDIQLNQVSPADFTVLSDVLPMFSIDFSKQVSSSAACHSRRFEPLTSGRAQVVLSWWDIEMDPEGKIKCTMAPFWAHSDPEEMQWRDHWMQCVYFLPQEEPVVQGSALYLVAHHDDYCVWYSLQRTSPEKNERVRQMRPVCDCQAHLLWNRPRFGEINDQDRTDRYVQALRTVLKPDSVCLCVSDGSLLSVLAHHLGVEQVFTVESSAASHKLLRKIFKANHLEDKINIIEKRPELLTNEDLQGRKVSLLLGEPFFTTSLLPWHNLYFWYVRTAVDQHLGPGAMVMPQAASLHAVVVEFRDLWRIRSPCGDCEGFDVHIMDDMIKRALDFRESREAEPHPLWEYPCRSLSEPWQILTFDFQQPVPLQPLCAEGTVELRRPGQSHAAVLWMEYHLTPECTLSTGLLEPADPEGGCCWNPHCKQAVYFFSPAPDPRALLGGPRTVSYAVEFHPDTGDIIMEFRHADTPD

SUV39H2/KMT1B = molecular target: T2, SUV39H2/KMT1B (Homo sapiens, UniProt Q9H5I1); assay: HotSpot KMT activity assay, SUV39H2; format: biochemical; details: read-out: % SUV39H2 residual activity
T2 construct: the human recombinant SUV39H2 (residues 46–410, C-terminus); His (C); purchased Reaction Biology Corporation
T2 sequence (Q9H5I1 46-410): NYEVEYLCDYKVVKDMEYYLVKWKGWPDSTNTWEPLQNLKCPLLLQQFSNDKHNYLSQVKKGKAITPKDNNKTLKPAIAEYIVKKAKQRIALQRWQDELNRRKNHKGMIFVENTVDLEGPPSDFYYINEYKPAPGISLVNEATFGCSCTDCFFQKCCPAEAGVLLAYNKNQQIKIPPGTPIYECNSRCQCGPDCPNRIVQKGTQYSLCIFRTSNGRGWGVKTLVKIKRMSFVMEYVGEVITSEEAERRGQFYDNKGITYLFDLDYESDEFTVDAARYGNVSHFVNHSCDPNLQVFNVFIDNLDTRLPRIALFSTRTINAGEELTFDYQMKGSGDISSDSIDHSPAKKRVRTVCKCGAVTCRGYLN
Excerpt: ; MW = 35.4 kDa; Genbank Accession # NM_018489), or the human recombinant EZH2-containing five-member polycomb repressive complex 2 (including EZH2 residues 2–746, AEBP2 2–517, EED 2–441, RbAp48 2–425, SUZ12 2–739; all full-length; with N-terminal Flag-tag on EED and N-terminal His-tag on all others; MW = 333.8 kDa; Genbank Accession # NM_001203247, NM_001114176, NM_003797, NM_005610, NM_015355), or the human recombinant G9a (residues 913–1193, C-terminus; with an N-terminal His-tag; MW = 34.6 kDa; Genbank Accession # NM_006709.3), or the human recombinant MLL1 complex (including MLL1 residues 3745–3969, C-terminus, WDR5 22–334, C-terminus, RbBP5 1–538, C-terminus, ASH2L 2–534, C-terminus, DPY-30 1–99, C-terminus; N-terminal His-tag on all subunits; MW = 212.0 kDa; Genbank Accession # NM_005933, NM_017588, NM_005057, NM_001105214, NM_0325742), or the human recombinant SET7/9 (residues 2–366, C-terminus; with a N-terminal GST-tag and a C-terminal His-tag; MW = 68.5 kDa; Genbank Accession # NM_030648), or the human recombinant SMYD3 (residues 2–428, C-terminus; C-terminal His-tag; MW = 50.1 kDa; Genbank Accession # NM_001167740), or the human recombinant SUV39H2 (residues 46–410, C-terminus; N-terminal fusion protein with a C-terminal His-tag; MW = 98.8 kDa; GenBank Accession No. NM_001193424), or the human recombinant DOT1L (residues 1–416; N-terminal GST-tag; MW = 80.0 kDa; Genbank Accession # NM_032482) was added to a solution of the proper substrate (oligo nucleosomes for ASH1L, MLL1 complex, and DOT1L, final concentration 0.05 mg/mL; core histone for EZH2 complex and SET7/9, final concentration 0.05 mg/mL; histone H3 for SUV39H2, final concentration 5 μM; histone H3 1–21 for G9a, final concentration 2.5 μM) in freshly prepared reaction buffer (50 mM Tris-HCl (pH 8.5), 5 mM MgCl2, 50 mM NaCl, 1 mM DTT, 1 mM PMSF, 1% DMSO) and gently mixed. […] After incubation for 60 min at 30 °C, the reaction mixture was delivered to filter paper for detection (as assessed by scintillation). […] Values obtained for each compound are mean ± SD determined for two separate experiments.

| Structure (SMILES) | IC50 (PRMT7) [nM] | remaining activity at 10 µM (SUV39H2/KMT1B; 10 μM) [%] | remaining activity at 100 µM (SUV39H2/KMT1B; 100 μM) [%] |
| --- | --- | --- | --- |
| COC(=O)c1cc(O)c2cc(NC(=O)NCCCNC(=N)NC[C@H]3O[C@@H](n4cnc5c(N)ncnc54)[C@H](O)[C@@H]3O)ccc2c1 [1a] | 315 | – | – |
| COC(=O)c1cc(O)c2cc(NC(=O)NCCCNC(=N)NC[C@H]3O[C@@H](n4cnc5c(N)ncnc54)[C@H](O)[C@@H]3O)cc(C(F)(F)F)c2c1 [1j, Methyl 6-(3-(3-(3-(((2R,3S,4R,5R)-5-(6-Amino-9H-purin-9-yl)-3,4-dihydroxytetrahydrofuran-2-yl)methyl)guanidino)propyl)ureido)-4-hydroxy-8-(trifluoromethyl)-2-naphthoate] | – | 89.7 ± 1.08 | 83.76 ± 0.22 |

Source: publication PMC10578352, “Identification of a Protein Arginine Methyltransferase 7 (PRMT7)/Protein Arginine Methyltransferase 9 (PRMT9) Inhibitor” (Journal of Medicinal Chemistry, 2023)
